Each compound was assayed on IL-1β release from THP-1 cells (assay: IL-1β Release Assay (Alternate Method), THP-1 cells). Settings: at 0.3 μM; THP-1 cells.
Assay type: cell-based, human
Experimental: THP-1 cells (ATCC Cat #285-IF-100) are plated in 96 well plates at a concentration of 200,000 cells per well and allowed to differentiate in RPMI-1640 media (ATCC Cat #30-2001) containing 10% FBS, 100 IU/mL penicillin, 100 ug/mL streptomycin, 100 ng/mL LPS and 100 ng/mL IFN-γ for 16 hours. Following differentiation, the cells are treated for an additional 2 hours in RPMI-1640 media containing 100 IU/mL penicillin, 100 ug/mL streptomycin and fresh LPS at 100 ng/mL. The cells are then pretreated for 30 minutes with the compound of interest at the appropriate concentration in RPMI media containing 100 IU/mL penicillin, 100 ug/mL streptomycin. Following the pretreatment 2′, 3′-O-(4-benzoylbenzoyl)-adenosine 5′-triphosphate (Sigma Aldrich Cat#B6396) is added to a final concentration of 250 uM and the cells incubated for an additional 45 minutes. 30 uL of cell supernatant is then collected and IL-1β levels determined via ELISA (R&D systems Cat. #HSLB50) according to manufacturer's recommendations using the Tecan Safire plate reader. Background adjusted IL-1β levels of drug treated and non-treated cells are used to calculate the percent inhibition.
With `O=C(CC1CCCCCC1)Nc1ncnc2c1CCN(CC1CCCCC1)C2` [Compound 127] the IL-1β % inhibition was “+ (compound exhibited 0-25% inhibition at 0.3 μM)”. With `Cc1oncc1C(=O)N1CCc2c(ncnc2NC(=O)CC23CC4CC(CC(C4)C2)C3)C1` [Compound 299] the IL-1β % inhibition was “+ (compound exhibited 0-25% inhibition at 0.3 μM)”. In the case of `Cc1ccc(CN2CCc3c(ncnc3C(=O)NCC3CCCCC3)C2)cc1` [Compound 55], the IL-1β % inhibition is reported as “+ (compound exhibited 0-25% inhibition at 0.3 μM)”. `Cc1cc(C(=O)N2CCc3c(ncnc3NC(=O)CC34CC5CC(CC(C5)C3)C4)C2)n(C(C)(C)C)n1` [Compound 300] was tested, and the IL-1β % inhibition was “+ (compound exhibited 0-25% inhibition at 0.3 μM)”. For `Cc1ccc(CN2CCc3c(ncnc3NC(=O)CC34CC5CC(CC(C5)C3)C4)C2)cc1F` [Compound 85], the IL-1β % inhibition was “+ (compound exhibited 0-25% inhibition at 0.3 μM)”. In the case of `O=C(CC12CC3CC(CC(C3)C1)C2)Nc1ncnc2c1CCN(C(=O)C1COc3ccccc3C1)C2` (centres unmarked) [Compound 313], the IL-1β % inhibition is reported as “++++ (compound exhibited 75% or greater inhibition at 0.3 μM)”. With `CS(=O)(=O)N1CCc2c(ncnc2NC(=O)CC23CC4CC(CC(C4)C2)C3)C1` [Compound 142] the IL-1β % inhibition was “+++ (compound exhibited 50-75% inhibition at 0.3 μM)”. For `CC(C)(C(=O)Nc1ncnc2c1CCN(S(=O)(=O)Cc1ccc(Cl)cc1)C2)C12CC3CC(CC(C3)C1)C2` [Compound 357], the IL-1β % inhibition was “+ (compound exhibited 0-25% inhibition at 0.3 μM)”. For `CC12CC3CC(C)(C1)CC(CC(=O)Nc1ncnc4c1CCN(Cc1ccc(F)cc1F)C4)(C3)C2` [Compound 374], the IL-1β % inhibition was “++ (compound exhibited 25-50% inhibition at 0.3 μM)”. In the case of `Cc1ccccc1S(=O)(=O)N1CCc2c(ncnc2NC(=O)CC23CC4CC(CC(C4)C2)C3)C1` [Compound 199], the IL-1β % inhibition is reported as “++++ (compound exhibited 75% or greater inhibition at 0.3 μM)”. In the case of `Cc1cccc(C(=O)N2CCc3c(ncnc3NC(=O)C34CC5CC(CC(C5)C3)C4)C2)c1` [Compound 403], the IL-1β % inhibition is reported as “++ (compound exhibited 25-50% inhibition at 0.3 μM)”. With `Cc1ccc(Cl)c(CN2CCc3c(ncnc3NC(=O)CC34CC5CC(CC(C5)C3)C4)C2)c1F` [Compound 87] the IL-1β % inhibition was “++ (compound exhibited 25-50% inhibition at 0.3 μM)”. With `O=C(CC12CC3CC(CC(C3)C1)C2)Nc1ncnc2c1CCN(Cc1cccc(OCCO)c1)C2` [Compound 101] the IL-1β % inhibition was “++ (compound exhibited 25-50% inhibition at 0.3 μM)”. In the case of `O=C(NCC12CC3CC(CC(C3)C1)C2)c1ncnc2c1CCN(Cc1ccccc1Cl)C2` [Compound 337], the IL-1β % inhibition is reported as “++ (compound exhibited 25-50% inhibition at 0.3 μM)”. With `O=C(CC12CC3CC(CC(C3)C1)C2)Nc1ncnc2c1CCN(S(=O)(=O)c1ccc(Cl)c(Cl)c1)C2` [Compound 155] the IL-1β % inhibition was “+ (compound exhibited 0-25% inhibition at 0.3 μM)”. For `O=C(CC12CC3CC(CC(C3)C1)C2)Nc1ncnc2c1CCN(Cc1cc(F)ccc1C(F)(F)F)C2` [Compound 96], the IL-1β % inhibition was “+ (compound exhibited 0-25% inhibition at 0.3 μM)”. With `CC12CC3CC(C)(C1)CC(CC(=O)Nc1ncnc4c1CCN(C(=O)c1c(F)cccc1F)C4)(C3)C2` [Compound 387] the IL-1β % inhibition was “+ (compound exhibited 0-25% inhibition at 0.3 μM)”. In the case of `Cc1ccccc1CN1CCc2c(ncnc2NC(=O)CC23CC4CC(C)(CC(C)(C4)C2)C3)C1` [Compound 372], the IL-1β % inhibition is reported as “+++ (compound exhibited 50-75% inhibition at 0.3 μM)”. In the case of `COc1ccc(OC)c(S(=O)(=O)N2CCc3c(ncnc3NC(=O)CC34CC5CC(CC(C5)C3)C4)C2)c1` [Compound 216], the IL-1β % inhibition is reported as “+++ (compound exhibited 50-75% inhibition at 0.3 μM)”. In the case of `O=C(CC12CC3CC(CC(C3)C1)C2)Nc1ncnc2c1CCN(S(=O)(=O)Cc1cc(Cl)cc(Cl)c1)C2` [Compound 186], the IL-1β % inhibition is reported as “++++ (compound exhibited 75% or greater inhibition at 0.3 μM)”. In the case of `O=C(CC12CC3CC(CC(C3)C1)C2)Nc1ncnc2c1CCN(S(=O)(=O)Cc1ccc(Cl)c(Cl)c1)C2` [Compound 185], the IL-1β % inhibition is reported as “++ (compound exhibited 25-50% inhibition at 0.3 μM)”. With `O=C(CC1CCCCC1)Nc1ncnc2c1CCNC2` [Compound 11] the IL-1β % inhibition was “+ (compound exhibited 0-25% inhibition at 0.3 μM)”. In the case of `COc1ccccc1CCC(=O)Nc1ncnc2c1CCN(CC1CCCCC1)C2` [Compound 136], the IL-1β % inhibition is reported as “+ (compound exhibited 0-25% inhibition at 0.3 μM)”. For `O=C(CC12CC3CC(CC(C3)C1)C2)Nc1ncnc2c1CCN(Cc1ccncc1)C2` [Compound 43], the IL-1β % inhibition was “+ (compound exhibited 0-25% inhibition at 0.3 μM)”. With `O=C(CC12CC3CC(CC(C3)C1)C2)Nc1ncnc2c1CCN(S(=O)(=O)c1c(F)cccc1F)C2` [Compound 206] the IL-1β % inhibition was “+ (compound exhibited 0-25% inhibition at 0.3 μM)”. In the case of `O=C(CC12CC3CC(CC(C3)C1)C2)Nc1ncnc2c1CCN(Cc1ccc(C(F)(F)F)c(F)c1)C2` [Compound 97], the IL-1β % inhibition is reported as “++ (compound exhibited 25-50% inhibition at 0.3 μM)”. For `Cc1ccc(C)c(CN2CCc3c(ncnc3NC(=O)CC34CC5CC(CC(C5)C3)C4)C2)c1` [Compound 32], the IL-1β % inhibition was “+ (compound exhibited 0-25% inhibition at 0.3 μM)”. In the case of `N#Cc1ccc(S(=O)(=O)N2CCc3c(ncnc3NC(=O)CC34CC5CC(CC(C5)C3)C4)C2)c(Cl)c1` [Compound 165], the IL-1β % inhibition is reported as “+++ (compound exhibited 50-75% inhibition at 0.3 μM)”. For `CC12CC3CC(C)(C1)CC(CC(=O)Nc1ncnc4c1CCN(S(=O)(=O)Cc1ccc(Cl)cc1)C4)(C3)C2` [Compound 379], the IL-1β % inhibition was “+++ (compound exhibited 50-75% inhibition at 0.3 μM)”. With `Cc1cccc(C(=O)N2CCc3c(ncnc3NC(=O)C(C)(C)C34CC5CC(CC(C5)C3)C4)C2)c1` [Compound 358] the IL-1β % inhibition was “+ (compound exhibited 0-25% inhibition at 0.3 μM)”. For `O=C(CC12CC3CC(CC(C3)C1)C2)Nc1ncnc2c1CCN(S(=O)(=O)Cc1cc(C(F)(F)F)cc(C(F)(F)F)c1)C2` [Compound 182], the IL-1β % inhibition was “+++ (compound exhibited 50-75% inhibition at 0.3 μM)”. In the case of `O=C(CC12CC3CC(CC(C3)C1)C2)Nc1ncnc2c1CCN(C(=O)c1ccc(Cl)cc1Cl)C2` [Compound 258], the IL-1β % inhibition is reported as “++++ (compound exhibited 75% or greater inhibition at 0.3 μM)”. With `O=C(CC12CC3CC(CC(C3)C1)C2)Nc1ncnc2c1CCN(S(=O)(=O)Cc1ccc(F)cc1)C2` [Compound 184] the IL-1β % inhibition was “++++ (compound exhibited 75% or greater inhibition at 0.3 μM)”. For `CC12CC3(C)CC(C)(C1)CC(CC(=O)Nc1ncnc4c1CCN(Cc1ccccc1)C4)(C2)C3` [Compound 344], the IL-1β % inhibition was “+ (compound exhibited 0-25% inhibition at 0.3 μM)”.

Same assay, conditions: at 0.3 μM; THP-1 cells, BzATP-stimulated
For `O=C(Nc1ncnc2c1CCN(S(=O)(=O)c1cc(Cl)ccc1Cl)C2)C12CC3CC(CC(C3)C1)C2` [Compound 538], the IL-1β % inhibition was “++ (compound exhibited 25-50% inhibition at 0.3 μM)”. `N#Cc1cccc(CN2CCc3c(ncnc3NC(=O)C34CC5CC(CC(C5)C3)C4)C2)c1` [Compound 571] was tested, and the IL-1β % inhibition was “++++ (compound exhibited 75% or greater inhibition at 0.3 μM)”. In the case of `COc1cc(CN2CCc3c(ncnc3NC(=O)C34CC5CC(CC(C5)C3)C4)C2)cc(Br)c1OC` [Compound 594], the IL-1β % inhibition is reported as “+ (compound exhibited 0-25% inhibition at 0.3 μM)”. For `O=C(Nc1ncnc2c1CCN(S(=O)(=O)c1ccc(Cl)cc1F)C2)C12CC3CC(CC(C3)C1)C2` [Compound 536], the IL-1β % inhibition was “++ (compound exhibited 25-50% inhibition at 0.3 μM)”. For `CC(C)(C)C(=O)N1CCc2c(ncnc2NC(=O)C23CC4CC(CC(C4)C2)C3)C1` [Compound 424], the IL-1β % inhibition was “+ (compound exhibited 0-25% inhibition at 0.3 μM)”. `N#Cc1cccc(C(=O)N2CCc3c(ncnc3NC(=O)C34CC5CC(CC(C5)C3)C4)C2)c1` [Compound 414] was tested, and the IL-1β % inhibition was “++ (compound exhibited 25-50% inhibition at 0.3 μM)”. With `O=C(Nc1ncnc2c1CCN(Cc1ccc3ccccc3c1)C2)C12CC3CC(CC(C3)C1)C2` [Compound 565] the IL-1β % inhibition was “++++ (compound exhibited 75% or greater inhibition at 0.3 μM)”. For `COc1cccc(CC(=O)N2CCc3c(ncnc3NC(=O)C34CC5CC(CC(C5)C3)C4)C2)c1` [Compound 433], the IL-1β % inhibition was “++ (compound exhibited 25-50% inhibition at 0.3 μM)”. `CCS(=O)(=O)N1CCc2c(ncnc2NC(=O)C23CC4CC(CC(C4)C2)C3)C1` [Compound 486] was tested, and the IL-1β % inhibition was “+ (compound exhibited 0-25% inhibition at 0.3 μM)”. `O=C(Nc1ncnc2c1CCN(Cc1cccc(OC(F)(F)F)c1)C2)C12CC3CC(CC(C3)C1)C2` [Compound 632] was tested, and the IL-1β % inhibition was “++ (compound exhibited 25-50% inhibition at 0.3 μM)”. With `O=C(Nc1ncnc2c1CCN(S(=O)(=O)Cc1cccc(C(F)(F)F)c1)C2)C12CC3CC(CC(C3)C1)C2` [Compound 520] the IL-1β % inhibition was “++ (compound exhibited 25-50% inhibition at 0.3 μM)”. In the case of `CS(=O)(=O)N1CCc2c(ncnc2NC(=O)C23CC4CC(CC(C4)C2)C3)C1` [Compound 480], the IL-1β % inhibition is reported as “+ (compound exhibited 0-25% inhibition at 0.3 μM)”. `O=C(Nc1ncnc2c1CCN(CC1CC1)C2)C12CC3CC(CC(C3)C1)C2` [Compound 557] was tested, and the IL-1β % inhibition was “+ (compound exhibited 0-25% inhibition at 0.3 μM)”. With `O=C(Nc1ncnc2c1CCN(Cc1cccc(Oc3ccccc3)c1)C2)C12CC3CC(CC(C3)C1)C2` [Compound 568] the IL-1β % inhibition was “+ (compound exhibited 0-25% inhibition at 0.3 μM)”. For `O=C(Nc1ncnc2c1CCN(Cc1ccc(C(F)(F)F)cc1)C2)C12CC3CC(CC(C3)C1)C2` [Compound 604], the IL-1β % inhibition was “++++ (compound exhibited 75% or greater inhibition at 0.3 μM)”. `O=C(Nc1ncnc2c1CCN(Cc1ccc(OC(F)F)cc1)C2)C12CC3CC(CC(C3)C1)C2` [Compound 621] was tested, and the IL-1β % inhibition was “+++ (compound exhibited 50-75% inhibition at 0.3 μM)”.

Reference: patent publication US7297700B2, “Bicycloheteroaryl compounds as P2X7 modulators and uses thereof” (Renovis, Inc., priority 2005, dated 2007)
